Marks after values point to notes of the source that are not given here.
How the values were obtained:
[1] = tested on: primary cardiac muscle cells induced by TM; experiment: Cardiomyocyte apoptosis induced by TM, TUNEL detection; format: cell-based, Wistar rats; settings: for TUNEL detection (%) cardiomyocyte apoptosis rate: 24 h, n = 6
Method: The primary cardiac muscle cells obtained by the method according to the culture method of primary cardiac muscle cells of Example 1 were added with tunicamycin (TM) on the 4th day to perform interference test. The cells were randomly divided into 5 groups: solvent control group (DMSO), TM interference group (5 μg/ml), Compound of Formula I+TM interference group (10 μM+5 μg/ml), Compound of Formula I interference group ([…]+5 μg/ml), Compound of Formula I interference group ([…]+5 μg/ml).
It was 24 h after drug interference, the apoptotic cells were detected by terminal deoxynucleotidyl transferase-mediated biotinylated UTP nick end labeling (TUNEL) method, and the cells were treated according to the specification of kit. The cells treated with 0.1 mg/ml DNase I and growing on a glass slide were used as positive control. 5 or more visual fields were randomly selected under light microscope, the apoptotic cells (brown yellow granules seen in nucleus) among the cells were counted. Apoptosis rat=(number of positively stained nuclei/number of all nuclei)×100%.

[2] = tested on: cardiac muscle cells under anoxia; experiment: Cardiomyocyte apoptosis induced by anoxia, high connotation screening (HCS Reader); format: cell-based, Wistar rats; settings: for Filament strength (actin filament) / Nucleus area / Nucleus strength / Short/long axis ratio of filament / cell count increase in comparison with the anoxia group / light flux / Cell count / Transmembrane potential (mitochondrial): anoxia 16 h; for Cell count / Transmembrane potential (mitochondrial): relative to control group = 1
Method: neonate Wistar rats, rat age: within 24 h, male and female
cardiac muscle cells were separated and cultured by referring to the method of differential adhesion, Wistar neonate […] newborn within 24 h were used, sterilized at skin of ventrum with iodine tincture and ethanol, subjected to thoracotomy using scissors at subxiphoid median line with a deviation to left, heart was taken out after slant thoracotomy and placed in PBS precooled with ice; the heart was softly blown and beaten with 0.01M PBS to remove blood cells and other tissues, then cut into pieces with 0.5 mm^3 size, washed with 0.01M PBS repeatedly for 2-3 times; the pieces were placed in conical flask, added with 4 ml of 0.125% pancretin, 1 ml of 0.1% collagenase II (final concentrations separately being 0.1% and 0.02%), shaken in 37° C. water bath for 10 min, the supernatant was discarded; then 4 ml of 0.125% pancretin and 1 ml of 0.1% collagenase II again, shaken in 37° C. water bath for digestion for 10 min, the supernatant was sucked and transferred to a centrifuge tube, and the supernatant was added with DMEM containing 10% FBS to terminate digestion; the step of shaking and digestion in water bath was repeated for 3-4 times, until the tissue pieces were completely digested; the collected cell suspension was centrifuged under 1000 rpm for 10 min, the supernatant was removed, then a culture medium was added for resuspension; the resuspended cells were inoculated in a cell culture flask, placed in CO2 incubator at 37° C. for incubation for 1.5 h, then the culture medium was sucked out, countered under microscope, then DMEM culture medium containing 10% FBS was used to adjust cell density, inoculated in an amount of 1×10^4 to a 96-well plate, placed in 5% CO2 incubator at 37° C. for 24 h, then half medium was replaced, a culture medium containing 0.1% Brdu was supplementally added; then the medium was replaced once per 48 h, and primary cardiac muscle cells were obtained after 4 days of cultivation.
1. The separated cardiac muscle cells were inoculated to a 96-wells plate, 10^4 cells per well, and the volume of each well was 100 μl (marginal wells were filled with sterile PBS). After being cultivated in 5% CO2 and 37° C. incubator for 4 d, Formula I was separated added at different concentrations (5 μM, 10 μM, 20 μM) and treated for 30 min, then placed in a sealed 37° C. anoxia incubator (O2/CO2, 5:95) and continuously incubated for 16 h, and at the same time, anoxia control wells and the normal control wells were set and cultivated in 5% CO2, 37° C. incubator for 16 h.
2. It was 30 min before the anoxia incubation was finished, each well was supplemented with 50 μl of culture medium and 50 μl of Mitotracker/Hoechst solution, and the cells were continuously incubated at 37° C. for 30 min.
3. 100 μl of the fixing solution was preheated to 37° C. and separately added to each culture well, without sucking out culture medium, and incubation was performed under ventilation at room temperature for 10 min.
4. The solution of each well was sucked out (the plate could be struck), washed with 1× Wash Buffer (100 uL/well) once. Carefulness was kept during operation and washing procedure, and slow sucking and adding liquid to maintain cell adhesion and integrity.
5. Wash Buffer was sucked out, 1× penetrating buffer solution (100 uL/well) was added, incubated at room temperature for 15 min.
6. The penetrating buffer solution in each well was sucked out, washed once with 100 μL/well of 1× Wash Buffer.
7. The Wash Buffer in each well was sucked out (the plate could be struck), each well was added with 50 μl of Alexa Fluor 488 Phalloidin Solution, incubated at room temperature in dark for 30 min.
8. The Alexa Fluor 488 Phalloidin solution in each well was sucked out, washed with 1× Wash Buffer (100 μl/well) twice, and added with 1× Wash Buffer (100 μl/well).
9. The edge of plate was covered with a sealing membrane (for prevention of drying), and assayed with HCS Reader. […]

O=C(/C=C/c1ccccc1)NC(NC(=S)Nc1cccc2cccnc12)C(Cl)(Cl)Cl (centres unmarked) [Compound of Formula I, (2E)-3-phenyl-N-[2,2,2-trichloro-1-[[(8-quinolylamino)thiomethyl]amino]ethyl]-2-acrylamide]
TUNEL detection (%) cardiomyocyte apoptosis rate ([1]; 10 μM + TM 5 μg/mL): 25.75 ± 0.97 ^b % | TUNEL detection (%) cardiomyocyte apoptosis rate ([1]; 20 μM + TM 5 μg/mL): 24.94 ± 0.82 ^b % | TUNEL detection (%) cardiomyocyte apoptosis rate ([1]; 40 μM + TM 5 μg/mL): 21.15 ± 0.85 ^b c % | apoptosis rate in comparison with the TM interference group (TUNEL) ([1]; 10, 20, 40 μM, P<0.05): significant decrease in apoptosis rate | Filament strength (actin filament) ([2]; 5 μM): 498.03 ± 76.67 | Nucleus area ([2]; 5 μM): 109.90 ± 3.97 | Nucleus strength ([2]; 5 μM): 124.90 ± 2.25 | Short/long axis ratio of filament ([2]; 5 μM): 0.75 ± 0.02 | cell count increase in comparison with the anoxia group ([2]; 5 μM): 17.06% | light flux ([2]; 5 μM): 1201.92 ± 29.95 | Cell count ([2]; 5 μM): 88.57% ± 7.64% | Transmembrane potential (mitochondrial) ([2]; 5 μM): 96.69% ± 5.06% | Filament strength (actin filament) ([2]; 10 μM): 503.64 ± 49.23 | Nucleus area ([2]; 10 μM): 107.43 ± 7.77 | Nucleus strength ([2]; 10 μM): 123.21 ± 2.71 | Short/long axis ratio of filament ([2]; 10 μM): 0.74 ± 0.01 | cell count increase in comparison with the anoxia group ([2]; 10 μM): 26.52% | light flux ([2]; 10 μM): 1166.12 ± 91.06 | Cell count ([2]; 10 μM): 98.03% ± 16.24 | Transmembrane potential (mitochondrial) ([2]; 10 μM): 97.19% ± 2.82^ | Filament strength (actin filament) ([2]; 20 μM): 471.83 ± 69.38 | Nucleus area ([2]; 20 μM): 111.90 ± 10.76 | Nucleus strength ([2]; 20 μM): 121.40 ± 2.24 | Short/long axis ratio of filament ([2]; 20 μM): 0.74 ± 0.02 | cell count increase in comparison with the anoxia group ([2]; 20 μM): 30.22% | light flux ([2]; 20 μM): 1214.09 ± 107.59 | Cell count ([2]; 20 μM): 101.73% ± 22.42% | Transmembrane potential (mitochondrial) ([2]; 20 μM): 99.40% ± 2.80% | effect on indexes of cardiac muscle cells under anoxia (nucleus area, nucleus strength, light flux, actin filament, transmembrane potential, cell count) ([2]; highly anoxia condition): significantly improve the above indexes

— patent publication US8859587B2, “(2E)-3-phenyl-N-[2,2,2-Trifluoro-1-[[8-quinolineamino)thiomethyl]amino]ethyl]-2-acrylamide and pharmaceutical uses thereof” (Chinese PLA General Hospital, priority 2010, dated 2014)
